Source: PubChem BioAssay (NCI)
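Tested at 5 concentrations; 48 h exposure; 96-well plates; endpoints linearly interpolated, else capped at highest concentration. TGI denotes the concentration required for complete inhibition of growth.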

Experiments:
Assay in all cases: NCI-60 cell line screen, 48 h
EKVX NSCLC = test system: EKVX NSCLC
UACC-62 melanoma = test system: UACC-62 melanoma
KM12 colon = test system: KM12 colon
T-47D breast = test system: T-47D breast
MALME-3M melanoma = test system: MALME-3M melanoma
ACHN renal = test system: ACHN renal
SNB-75 CNS = test system: SNB-75 CNS
U251 CNS = test system: U251 CNS
SK-OV-3 ovarian = test system: SK-OV-3 ovarian
SF-539 CNS = test system: SF-539 CNS
OVCAR-5 ovarian = test system: OVCAR-5 ovarian
COLO 205 colon = test system: COLO 205 colon
NCI/ADR-RES ovarian = test system: NCI/ADR-RES ovarian
UO-31 renal = test system: UO-31 renal
HT29 colon = test system: HT29 colon
MDA-MB-435 = test system: MDA-MB-435
HCT-15 colon = test system: HCT-15 colon
A498 renal = test system: A498 renal
BT-549 breast = test system: BT-549 breast
UACC-257 melanoma = test system: UACC-257 melanoma
HOP-92 NSCLC = test system: HOP-92 NSCLC
HL-60(TB) leukemia = test system: HL-60(TB) leukemia
SN12C renal = test system: SN12C renal
SK-MEL-28 melanoma = test system: SK-MEL-28 melanoma
NCI-H226 lung = test system: NCI-H226 lung
OVCAR-4 ovarian = test system: OVCAR-4 ovarian
MDA-N = test system: MDA-N
LOX IMVI melanoma = test system: LOX IMVI melanoma
DU-145 prostate = test system: DU-145 prostate
PC-3 prostate = test system: PC-3 prostate
HCC-2998 colon = test system: HCC-2998 colon
MCF7 breast = test system: MCF7 breast
HS 578T breast = test system: HS 578T breast
SF-295 CNS = test system: SF-295 CNS
786-0 renal = test system: 786-0 renal
MDA-MB-231 breast = test system: MDA-MB-231 breast
OVCAR-8 ovarian = test system: OVCAR-8 ovarian
SK-MEL-2 melanoma = test system: SK-MEL-2 melanoma
HCT-116 colon = test system: HCT-116 colon
SK-MEL-5 melanoma = test system: SK-MEL-5 melanoma
OVCAR-3 ovarian = test system: OVCAR-3 ovarian
CAKI-1 renal = test system: CAKI-1 renal
RXF 393 renal = test system: RXF 393 renal
RPMI-8226 leukemia = test system: RPMI-8226 leukemia
SNB-19 CNS = test system: SNB-19 CNS
SW-620 colon = test system: SW-620 colon
SF-268 CNS = test system: SF-268 CNS
NCI-H522 lung = test system: NCI-H522 lung
CCRF-CEM leukemia = test system: CCRF-CEM leukemia
MOLT-4 leukemia = test system: MOLT-4 leukemia
A549 NSCLC = test system: A549 NSCLC
M14 melanoma = test system: M14 melanoma
NCI-H460 lung = test system: NCI-H460 lung
NCI-H23 lung = test system: NCI-H23 lung
HOP-62 NSCLC = test system: HOP-62 NSCLC
IGROV1 ovarian = test system: IGROV1 ovarian
TK-10 renal = test system: TK-10 renal
K-562 leukemia = test system: K-562 leukemia
SR leukemia = test system: SR leukemia

Measured: TGI

O=c1oc2ccccc2c(O)c1C(c1ccc2c(c1)Cc1ccccc1-2)c1c(O)c2ccccc2oc1=O
49.8 µM: UACC-62 melanoma
37.2 µM: COLO 205 colon
77.4 µM: MDA-MB-435
86.3 µM: HS 578T breast
36.7 µM: MDA-N
74.2 µM: SK-MEL-2 melanoma
71.4 µM: MALME-3M melanoma
53.6 µM: BT-549 breast
66.1 µM: OVCAR-5 ovarian
43.5 µM: SF-539 CNS
33.1 µM: UO-31 renal
62.4 µM: NCI-H460 lung
49.2 µM: NCI-H522 lung
41.2 µM: SN12C renal
66.7 µM: LOX IMVI melanoma
49.1 µM: KM12 colon
41.5 µM: CAKI-1 renal
57.6 µM: SK-MEL-28 melanoma
51.1 µM: MCF7 breast
90.8 µM: SK-OV-3 ovarian
35.5 µM: RXF 393 renal
45.6 µM: ACHN renal
39.9 µM: SK-MEL-5 melanoma
68.4 µM: SF-268 CNS
59.8 µM: HL-60(TB) leukemia
41 µM: M14 melanoma
49.3 µM: HOP-92 NSCLC
66.9 µM: 786-0 renal
57.9 µM: MDA-MB-231 breast
57.4 µM: SF-295 CNS
44.4 µM: A549 NSCLC
33.6 µM: HCC-2998 colon
57.2 µM: HCT-15 colon
90.9 µM: SW-620 colon
69.5 µM: NCI-H23 lung
60.3 µM: U251 CNS
not listed: K-562 leukemia | SR leukemia
> 100 µM: all other assays above

COC(=O)c1ccccc1C1CN=NC12Cc1cc(C)c(C)cc1C2=O (stereo unspecified)
92.7 µM: LOX IMVI melanoma
89.8 µM: MOLT-4 leukemia
78.9 µM: HOP-92 NSCLC
44.9 µM: UACC-257 melanoma
67.3 µM: NCI-H522 lung
65 µM: MCF7 breast
38.1 µM: SK-MEL-5 melanoma
46.9 µM: HL-60(TB) leukemia
not listed: RPMI-8226 leukemia | SR leukemia
> 100 µM: all other assays above

O=C(O)C1(Cc2ccc3c(c2)CCC3)Cc2ccccc2C1=O (stereo unspecified)
87.3 µM: HOP-92 NSCLC
92.2 µM: RPMI-8226 leukemia
not listed: CAKI-1 renal | NCI-H522 lung
> 100 µM: all other assays above
